Measured values taken from patent publication US8835462B2, “Macrocyclic picolinamides as fungicides” (Dow AgroSciences LLC, priority 2012, dated 2014).

How the values were obtained:
[1] = test system: Phakopsora pachyrhizi; assay: Asian soybean rust (PHAKPA) fungicidal activity; assay type: in vivo; conditions: 25 ppm; for Disease Control PHAKPA 1 DP: 1 Day Protectant; for Disease Control PHAKPA 2 DC: 2 Day Curative
Description: Evaluation of Fungicidal Activity: Asian Soybean Rust (Phakopsora Pachyrhizi; Bayer Code […]) Technical grades of materials were dissolved in acetone, which were then mixed with nine volumes of water containing 0.011% Tween 20. The fungicide solutions were applied onto soybean seedlings using an automated booth sprayer to run-off. All sprayed plants were allowed to air dry prior to further handling. Soybean plants (variety Williams 82) were grown in soil-less Metro mix, with one plant per pot. Two weeks old seedlings were used for testing. Plants were inoculated either 2 days prior to or 1 day after fungicide treatments. Plants were incubated for 24 h in a dark dew room at 22° C. and 100% RH then transferred to a growth room at 23° C. for disease to develop. Disease severity was assessed on the sprayed leaves.

[2] = test system: Cochliobolus sativus; assay: Spot blotch of barley (COCHSA) fungicidal activity; assay type: in vivo; conditions: 100 ppm, 1 Day Protectant
Description: Technical grades of materials were dissolved in acetone, which were then mixed with nine volumes of water containing 110 ppm Triton X-100. The fungicide solutions were applied onto wheat seedlings using an automated booth sprayer to run-off. All sprayed plants were allowed to air dry prior to further handling. Wheat plants (variety Yuma) were grown from seed in a greenhouse in 50% mineral soil/50% soil-less Metro mix until the first leaf was fully emerged, with 7-10 seedlings per pot. These plants were inoculated with an aqueous spore suspension of Septoria tritici either prior to or after fungicide treatments. After inoculation the plants were kept in 100% relative humidity (one day in a dark dew chamber followed by two to three days in a lighted dew chamber at 20° C.) to permit spores to germinate and infect the leaf. The plants were then transferred to a greenhouse set at 20° C. for disease to develop. When disease symptoms were fully expressed on the 1st leaves of untreated plants, infection levels were assessed on a scale of 0 to 100 percent disease severity. Percent disease control was calculated using the ratio of disease severity on treated plants relative to untreated plants. Evaluation of Fungicidal Activity: Spot Blotch of Barley (Cochliobolus Sativus; Bayer Code COCHSA) Barley seedlings (variety Harrington) were propagated in soil-less Metro mix, with each pot having 8 to 12 plants, and used for testing when first leaf was fully emerged. Test plants were inoculated with a spore suspension of Cochliobolus sativus 24 hr after fungicide treatments. After inoculation the plants were placed in a dark dew room with 100% RH and temperature of 22° C. for 48 hr. The plants were then kept in a greenhouse set at 24° C. until disease fully developed. Fungicide formulation, application and disease assessment followed the procedures as described in the Example A.

[3] = test system: Rhyncosporium secalis; assay: Barley scald (RHYNSE) fungicidal activity; assay type: in vivo; conditions: 100 ppm, 1 Day Protectant
Description: Technical grades of materials were dissolved in acetone, which were then mixed with nine volumes of water containing 110 ppm Triton X-100. The fungicide solutions were applied onto wheat seedlings using an automated booth sprayer to run-off. All sprayed plants were allowed to air dry prior to further handling. Wheat plants (variety Yuma) were grown from seed in a greenhouse in 50% mineral soil/50% soil-less Metro mix until the first leaf was fully emerged, with 7-10 seedlings per pot. These plants were inoculated with an aqueous spore suspension of Septoria tritici either prior to or after fungicide treatments. After inoculation the plants were kept in 100% relative humidity (one day in a dark dew chamber followed by two to three days in a lighted dew chamber at 20° C.) to permit spores to germinate and infect the leaf. The plants were then transferred to a greenhouse set at 20° C. for disease to develop. When disease symptoms were fully expressed on the 1st leaves of untreated plants, infection levels were assessed on a scale of 0 to 100 percent disease severity. Percent disease control was calculated using the ratio of disease severity on treated plants relative to untreated plants. Evaluation of Fungicidal Activity: Barley Scald (Rhyncosporium Secalis; Bayer Code […]) Barley seedlings (variety Harrington) were propagated in soil-less Metro mix, with each pot having 8 to 12 plants, and used in the test when first leaf was fully emerged. Test plants were inoculated by an aqueous spore suspension of Rhyncosporium secalis 24 hr after fungicide treatments. After inoculation the plants were kept in dew room at 20° C. with 100% relative humidity for 48 hr. The plants were then transferred to a greenhouse set at 20° C. for disease to develop. Fungicide formulation, application and disease assessment on the sprayed leaves followed the procedures as described in the Example A.

Structure (SMILES) | Disease Control PHAKPA 1 DP [1] | Disease Control PHAKPA 2 DC [1] | Disease Control COCHSA 1DP [2] | Disease Control RHYNSE 1DP [3] | melting point [°C]
COc1ccnc(C(=O)N[C@H]2COC[C@H](Cc3ccccc3)[C@@H](OCC(C)C)[C@H](C)OC2=O)c1OCOC(=O)C(C)(C)C [Compound 7] | A (80-100) | A (80-100) | B (More than 0-Less than 80) | – | –
COc1ccnc(C(=O)N[C@H]2COC[C@H](Cc3ccccc3)[C@@H](OC3CCCC3)[C@H](C)OC2=O)c1OCOC(=O)C(C)C [Compound 108] | A (80-100) | A (80-100) | – | A (80-100) | –
COc1ccnc(C(=O)N[C@H]2COC[C@H](Cc3ccccc3)[C@@H](OCC(C)C)[C@H](C)OC2=O)c1O [Compound 2, N-((3S,7S,8R,9S)-7-benzyl-8-isobutoxy-9-methyl-2-oxo-1,5-dioxonan-3-yl)-3-hydroxy-4-methoxypicolinamide] | A (80-100) | A (80-100) | – | – | 126 to 128
COc1ccnc(C(=O)N[C@H]2COC[C@H](Cc3ccccc3)[C@@H](OC3CCCC3)[C@H](C)OC2=O)c1OC(C)=O [Compound 107] | – | – | – | A (80-100) | –
COc1ccnc(C(=O)N[C@H]2COC[C@H](Cc3ccccc3)[C@@H](OCC(C)C)[C@H](C)OC2=O)c1OCOC(=O)C(C)C [Compound 3] | A (80-100) | A (80-100) | A (80-100) | – | 54 to 58
COc1ccnc(C(=O)N[C@H]2COC[C@H](Cc3ccccc3)[C@@H](OCC(C)C)[C@H](C)OC2=O)c1OC(=O)OC(C)C [Compound 10, 2-(((3S,7S,8R,9S)-7-benzyl-8-isobutoxy-9-methyl-2-oxo-1,5-dioxonan-3-yl)carbamoyl)-4-methoxypyridin-3-yl isopropyl carbonate] | A (80-100) | A (80-100) | B (More than 0-Less than 80) | – | –
COc1ccnc(C(=O)N[C@H]2COC[C@H](Cc3ccccc3)[C@@H](OCC(C)C)[C@H](C)OC2=O)c1OC(C)=O [Compound 9, 2-(((3S,7S,8R,9S)-7-benzyl-8-isobutoxy-9-methyl-2-oxo-1,5-dioxonan-3-yl)carbamoyl)-4-methoxypyridin-3-yl acetate] | A (80-100) | A (80-100) | B (More than 0-Less than 80) | – | –
COc1ccnc(C(=O)N[C@H]2COC[C@H](Cc3ccccc3)[C@@H](OCC(C)C)[C@H](C)OC2=O)c1OCOC(C)=O [Compound 8, (2-((3S,7S,8R,9S)-7-benzyl-8-isobutoxy-9-methyl-2-oxo-1,5-dioxonan-3-ylcarbamoyl)-4-methoxypyridin-3-yloxy)methyl acetate] | A (80-100) | A (80-100) | B (More than 0-Less than 80) | A (80-100) | –
